Results: US20230063230A1, “NURR1 RECEPTOR MODULATORS” (priority 2019, published 2023)

Experiments:
Nurr1 [1] = molecular target: T1, Nurr1 (Homo sapiens, UniProt P43354); assay: Binding SPR; settings: analogs of compound 87
Target sequence in this assay (P43354 360-595 limits assumed): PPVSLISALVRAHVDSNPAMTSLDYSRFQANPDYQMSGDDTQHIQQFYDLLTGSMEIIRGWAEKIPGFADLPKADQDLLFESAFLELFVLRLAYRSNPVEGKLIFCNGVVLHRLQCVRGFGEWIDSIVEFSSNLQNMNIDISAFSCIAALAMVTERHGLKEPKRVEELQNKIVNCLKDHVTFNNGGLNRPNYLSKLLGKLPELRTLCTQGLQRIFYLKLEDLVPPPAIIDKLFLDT

TH in SHSY5Y = assay: qPCR SHSY5Y TH; type: cell-based; settings: Homo sapiens, SH-SY5Y, cpds tested at 10 μM
Vmat2 in MN9D = assay: cells; type: cell-based; settings: cpds tested at 10 μM, analogs of compound 87, read-out: qPCR MN9D Vmat2
Nurr1 in MN9D = assay: qPCR MN9D Nurr1; type: cell-based; settings: cpds tested at 10 μM, analogs of compound 87
Nurr1 [2] = molecular target: T1, Nurr1; assay: Binding MST; settings: analogs of compound 87
Target sequence in this assay (P43354 360-595 limits assumed): as above

Nurr1 [3] = molecular target: T1, Nurr1; assay: Luciferase cellular assay; type: cell-based; parameters: expressed in transfected cells; host or cells: SK-N-BE(2)C cells (ATCC CRL-2268); settings: cpds tested at 10 μM; analogs of compound 87
Target sequence in this assay (P43354 328-598): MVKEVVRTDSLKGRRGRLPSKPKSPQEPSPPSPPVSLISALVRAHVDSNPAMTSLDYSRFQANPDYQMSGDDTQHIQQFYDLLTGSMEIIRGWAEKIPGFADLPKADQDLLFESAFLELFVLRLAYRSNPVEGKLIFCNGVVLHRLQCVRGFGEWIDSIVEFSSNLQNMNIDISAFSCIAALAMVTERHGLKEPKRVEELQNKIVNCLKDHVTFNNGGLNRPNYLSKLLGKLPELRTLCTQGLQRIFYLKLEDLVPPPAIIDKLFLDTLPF

SMILES	Binding SPR (Nurr1 [1])	fold induction at 10 µM (TH in SHSY5Y)	fold induction at 10 µM (Vmat2 in MN9D)	fold induction at 10 µM (Nurr1 in MN9D)	Binding MST (Nurr1 [2])	Luciferase (Nurr1 [3])
CC(C)(NC(=O)c1cc(Cl)cc(Cl)c1)c1cnn(CCS)c1 [SP 153, 3,5-dichloro-N-(2-(1-(2-mercaptoethyl)-1H-pyrazol-4-yl)propan-2-yl)benzamide]	+++	> 4	> 1.5	> 4	+++	–
CC(C)(NC(=O)c1cc(Br)cc(Br)c1)c1cn(CCS)nn1 [SP 156, 3,5-dibromo-N-(2-(1-(2-mercaptoethyl)-1H-1,2,3-triazol-4-yl)propan-2-yl)benzamide]	++	> 4	–	–	++	+++ (+++ =>4−fold)
CC(C)(NC(=O)c1ccc(Cl)c(Cl)c1)c1cn(CCS)nn1 [SP 157, 3,4-dichloro-N-(2-(1-(2-mercaptoethyl)-1H-1,2,3-triazol-4-yl)propan-2-yl)benzamide]	+	–	> 4	–	+++	+++ (+++ =>4−fold)
CC(C)C(=O)SCCn1cc(C(C)(C)NC(=O)c2cc(Cl)cc(Cl)c2)nn1 [SP 163, S-2-(4-(2-(3,5-dichlorobenzamido)propan-2-yl)-1H-1,2,3-triazol-1-yl)ethyl 2-methylpropanethioate]	–	> 1.5	> 4	–	–	–
CC(=O)SCCn1cc(C(C)(C)NC(=O)c2cc(Br)cc(Br)c2)nn1 [SP 173, S-2-(4-(2-(3,5-dibromobenzamido)propan-2-yl)-1H-1,2,3-triazol-1-yl)ethyl ethanethioate]	–	> 1.5	–	–	–	+++ (+++ =>4−fold)
CC(=O)SCCn1cc(C(C)(C)NC(=O)c2cc(Cl)cc(N3CCN(C)CC3)c2)nn1 [SP 186, S-2-(4-(2-(3-chloro-5-(4-methylpiperazin-1-yl)benzamido)propan-2-yl)-1H-1,2,3-triazol-1-yl)ethyl ethanethioate]	–	–	> 1.5	–	–	++ (++ => 1.5-fold)
